Data as given in patent US12473299B2, “Cross-linked nucleoside and nucleotide using same” (Osaka University, priority 2020, dated 2025).
Entries after “also recorded” stand apart in the source; their conditions may differ. [BANA] = cross-linked (bridged) nucleoside of the invention; l = locked nucleic acid (LNA); d = 2'-deoxy (DNA)

Test system: mice (C57BL/6J, male)
Test: Toxicity reducing effect: serum AST/ALT and death in mice
Assay type: in vivo
Settings: 20 mg/kg intraperitoneally
Procedure: The test oligonucleotides (20 mg/kg) shown in Table 45 were administered intraperitoneally to six-week-old mice (C57BL/6J, male) (5 mice/group). After 96 hours, blood was collected under inhalation anesthesia (isoflurane), and the mice were exsanguinated. Then, the activities of aspartate transaminase (AST) and alanine transaminase (ALT) in serum were measured using an automated analyzer (FUJI DRI-CHEM 4000V manufactured by FUJIFILM).

[1] = 5 mice/group, serum after 96 hours, Means ± SD

Substance	ALT [1]	AST [1]	increase in ALT and AST (after 96 hours, versus saline)	Remarks (death of mice) (5 mice/group, 96 hours)
5′-d(^LG^T^T^a^t^g^c^c^a^c^c^^LC^T^^LA)-3′ (antisense GTTATGCCACCCTA; sugars from the 5' end l[BANA][BANA]ddddddddl[BANA]l, all phosphorothioate, methylation of C not given here) [(28), T: BANA-T3]	36.8 ± 9.5 IU/L	223.2 ± 102.6 IU/L	almost no increase in ALT and AST	–
5′-d(^LG^^LT^^LT^t^g^c^c^a^c^c^^LC^^LT^^LA)-3′ (antisense GTTATGCCACCCTA; sugars from the 5' end l3 d8 l3, all phosphorothioate, methylation of C not given here) [(29), reference compound]	–	–	–	all of the five mice died; also recorded: All 5 died
